Data: PubChem BioAssay (NCI)
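These data come from cells grown in 96-well plates and exposed to compound for 48 hours at five concentrations. GI50 is the concentration that inhibits growth by half. TGI: concentration producing complete growth inhibition.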

Assays:
Assay in all cases: growth of human tumour cells (NCI), 48 h
[1] = tested on: HS 578T breast
[2] = tested on: DU-145 prostate
[3] = tested on: HOP-62 NSCLC
[4] = tested on: MOLT-4 leukemia
[5] = tested on: U251 CNS
[6] = tested on: SF-539 CNS
[7] = tested on: IGROV1 ovarian
[8] = tested on: SR leukemia
[9] = tested on: TK-10 renal
[10] = tested on: A498 renal
[11] = tested on: BT-549 breast
[12] = tested on: CCRF-CEM leukemia
[13] = tested on: OVCAR-5 ovarian
[14] = tested on: HOP-92 NSCLC
[15] = tested on: ACHN renal
[16] = tested on: SNB-75 CNS
[17] = tested on: MCF7 breast
[18] = tested on: MDA-MB-435
[19] = tested on: RPMI-8226 leukemia
[20] = tested on: HL-60(TB) leukemia
[21] = tested on: HCT-15 colon
[22] = tested on: HCT-116 colon
[23] = tested on: NCI-H226 lung
[24] = tested on: COLO 205 colon
[25] = tested on: SF-295 CNS
[26] = tested on: SK-MEL-5 melanoma
[27] = tested on: SNB-19 CNS
[28] = tested on: MDA-MB-231 breast
[29] = tested on: NCI/ADR-RES ovarian
[30] = tested on: MALME-3M melanoma
[31] = tested on: UO-31 renal
[32] = tested on: NCI-H522 lung
[33] = tested on: OVCAR-3 ovarian
[34] = tested on: M14 melanoma
[35] = tested on: HCC-2998 colon
[36] = tested on: SK-OV-3 ovarian
[37] = tested on: UACC-257 melanoma
[38] = tested on: SW-620 colon
[39] = tested on: LOX IMVI melanoma
[40] = tested on: CAKI-1 renal
[41] = tested on: OVCAR-8 ovarian
[42] = tested on: OVCAR-4 ovarian
[43] = tested on: NCI-H23 lung
[44] = tested on: PC-3 prostate
[45] = tested on: NCI-H460 lung
[46] = tested on: 786-0 renal
[47] = tested on: RXF 393 renal
[48] = tested on: K-562 leukemia
[49] = tested on: KM12 colon
[50] = tested on: SF-268 CNS
[51] = tested on: SK-MEL-2 melanoma
[52] = tested on: UACC-62 melanoma
[53] = tested on: HT29 colon
[54] = tested on: SN12C renal
[55] = tested on: A549 NSCLC
[56] = tested on: SK-MEL-28 melanoma
[57] = tested on: EKVX NSCLC
[58] = tested on: T-47D breast

Compound: COc1ccc2c(c1)N(CCO)C1=C(C(=O)OC1)C2c1cc(OC)c(OC)c(OC)c1 (stereo not drawn)
- GI50 [1]: 0.0279 µM
- TGI [1]: > 50 µM
- GI50 [2]: 0.0261 µM
- TGI [2]: 0.188 µM
- GI50 [3]: 0.0265 µM
- TGI [3]: > 50 µM
- GI50 [4]: 0.0938 µM
- TGI [4]: > 50 µM
- GI50 [5]: 0.0165 µM
- TGI [5]: > 50 µM
- GI50 [6]: 0.0176 µM
- TGI [6]: > 50 µM
- GI50 [7]: 0.0362 µM
- TGI [7]: > 50 µM
- GI50 [8]: 0.0252 µM
- TGI [8]: > 50 µM
- GI50 [9]: 0.0264 µM
- TGI [9]: > 50 µM
- GI50 [10]: 0.0147 µM
- TGI [10]: 0.0616 µM
- GI50 [11]: 0.0919 µM
- TGI [11]: > 50 µM
- GI50 [12]: 0.0231 µM
- TGI [12]: > 50 µM
- GI50 [13]: 0.0614 µM
- TGI [13]: > 50 µM
- GI50 [14]: 0.0861 µM
- TGI [14]: > 50 µM
- GI50 [15]: 0.0549 µM
- TGI [15]: > 50 µM
- GI50 [16]: 0.0198 µM
- TGI [16]: > 50 µM
- GI50 [17]: 0.0195 µM
- TGI [17]: > 50 µM
- GI50 [18]: < 0.0108 µM
- TGI [18]: 0.0272 µM
- GI50 [19]: 0.0287 µM
- TGI [19]: > 50 µM
- GI50 [20]: 0.015 µM
- GI50 [21]: 0.0622 µM
- TGI [21]: > 50 µM
- GI50 [22]: 0.0174 µM
- GI50 [23]: 0.0228 µM
- TGI [23]: > 50 µM
- GI50 [24]: 0.015 µM
- TGI [24]: 0.038 µM
- GI50 [25]: 0.014 µM
- TGI [25]: > 50 µM
- GI50 [26]: 0.0171 µM
- TGI [26]: 0.0714 µM
- GI50 [27]: 0.0429 µM
- TGI [27]: > 50 µM
- GI50 [28]: 0.055 µM
- TGI [28]: 0.246 µM
- GI50 [29]: 0.0787 µM
- TGI [29]: 2.7 µM
- GI50 [30]: 0.0287 µM
- TGI [30]: > 50 µM
- GI50 [31]: 0.183 µM
- TGI [31]: > 50 µM
- GI50 [32]: 0.0109 µM
- TGI [32]: 0.0286 µM
- GI50 [33]: 0.0133 µM
- TGI [33]: 0.0322 µM
- GI50 [34]: 0.0213 µM
- TGI [34]: > 50 µM
- GI50 [35]: 0.0639 µM
- TGI [35]: > 50 µM
- GI50 [36]: 0.0231 µM
- TGI [36]: > 50 µM
- GI50 [37]: 0.0226 µM
- TGI [37]: > 50 µM
- GI50 [38]: 0.0196 µM
- TGI [38]: > 50 µM
- GI50 [39]: 0.0258 µM
- TGI [39]: > 50 µM
- GI50 [40]: 0.0852 µM
- TGI [40]: > 50 µM
- GI50 [41]: 0.0199 µM
- TGI [41]: 0.181 µM
- GI50 [42]: 0.031 µM
- TGI [42]: > 50 µM
- GI50 [43]: 0.0281 µM
- TGI [43]: > 50 µM
- GI50 [44]: 0.0247 µM
- TGI [44]: > 50 µM
- GI50 [45]: 0.0196 µM
- TGI [45]: > 50 µM
- GI50 [46]: 0.0679 µM
- TGI [46]: > 50 µM
- GI50 [47]: 0.0128 µM
- TGI [47]: > 50 µM
- GI50 [48]: 0.0196 µM
- TGI [48]: > 50 µM
- GI50 [49]: 0.0178 µM
- GI50 [50]: 0.033 µM
- TGI [50]: > 50 µM
- GI50 [51]: 0.0267 µM
- TGI [51]: 18.3 µM
- GI50 [52]: 0.0208 µM
- TGI [52]: > 50 µM
- GI50 [53]: 0.0141 µM
- TGI [53]: 0.0389 µM
- GI50 [54]: 0.0609 µM
- TGI [54]: > 50 µM
- GI50 [55]: 0.0266 µM
- TGI [55]: > 50 µM

Compound: CN(C)c1ccc(-c2[nH]c(=O)c3ccccc3[n+]2C)cc1
- TGI [1]: > 100 µM
- TGI [2]: > 100 µM
- TGI [3]: > 100 µM
- TGI [4]: > 100 µM
- TGI [5]: > 100 µM
- TGI [6]: > 100 µM
- TGI [7]: > 100 µM
- TGI [8]: > 100 µM
- TGI [9]: > 100 µM
- TGI [10]: > 100 µM
- TGI [12]: > 100 µM
- TGI [13]: > 100 µM
- TGI [14]: > 100 µM
- TGI [56]: > 100 µM
- TGI [15]: > 100 µM
- TGI [16]: > 100 µM
- TGI [17]: > 100 µM
- TGI [18]: > 100 µM
- TGI [19]: > 100 µM
- TGI [20]: > 100 µM
- TGI [21]: > 100 µM
- TGI [22]: > 100 µM
- TGI [23]: > 100 µM
- TGI [24]: > 100 µM
- TGI [25]: > 100 µM
- TGI [26]: > 100 µM
- TGI [27]: > 100 µM
- TGI [28]: > 100 µM
- TGI [29]: > 100 µM
- TGI [30]: > 100 µM
- TGI [31]: > 100 µM
- TGI [34]: > 100 µM
- TGI [35]: > 100 µM
- TGI [36]: > 100 µM
- TGI [37]: > 100 µM
- TGI [38]: > 100 µM
- TGI [41]: > 100 µM
- TGI [57]: > 100 µM
- TGI [42]: > 100 µM
- TGI [43]: > 100 µM
- TGI [45]: > 100 µM
- TGI [46]: > 100 µM
- TGI [47]: > 100 µM
- TGI [48]: > 100 µM
- TGI [49]: > 100 µM
- TGI [50]: > 100 µM
- TGI [58]: > 100 µM
- TGI [52]: > 100 µM
- TGI [53]: > 100 µM
- TGI [54]: > 100 µM
- TGI [55]: > 100 µM
